Source: US10251408B2, “Catechin function enhancement method” (KYUSHU UNIVERSITY, NATIONAL UNIVERSITY CORPORATION, priority 2014, dated 2019)

Columns and labels:
[1] = tested on: Human multiple myeloma cell line U266; assay: Cancer cell death induction, viable cells by trypan blue assay (96-well plate, FIG. 9); assay type: cell-based; conditions: 96 hours, in combination with EGCG, EGCG 3″Me or green tea extract
Method: (§1) Human multiple myeloma cell line U266 was subcultured and maintained in RPMI 1640 medium supplemented with 10% FCS under conditions of 37° C. and water vapor-saturated 5% CO2. The cells were maintained in the logarithmic growth phase. The RPMI 1640 medium used for culture was prepared as follows: per liter of ultrapure water, RPMI 1640 medium (10.4 g), HEPES (2.38 g), injectable penicillin G potassium (100,000 units), streptomycin sulfate injectable (100 mg) and NaHCO3 (2.0 g) were suspended and then filter-sterilized.
The lemon peel extract used in the experiment was prepared as follows. Peels (100 g) were collected with a grater from 6 lemons and 100% EtOH (100 mL) was added thereto, followed by mashing with a mortar. The mashed mixture was further strained through gauze to remove fibers and then filtered by gravity using a #1 paper filter and a funnel to remove precipitates, followed by centrifugation at 12000×g to collect the supernatant. The resulting ethanol extract of lemon was evaporated with an evaporator to volatilize the solvent, thereby obtaining an ethanol-extracted lemon fraction. This ethanol-extracted lemon fraction was dissolved again in DMSO to give a lemon extract. […] After culture, viable cells were counted by trypan blue assay.
To evaluate the effect of combined use of EGCG or a structural analog thereof or an EGCG-containing naturally occurring product and eriodictyol or a structural analog thereof or an eriodictyol-containing naturally occurring product, human multiple myeloma cell line U266 was adjusted to 5×10^4 cells/mL and seeded in a 96-well plate, and then cultured for 96 hours in the presence of EGCG and eriodictyol added at a final concentration of 5 μM each. After culture for 96 hours, viable cells were counted by trypan blue assay.

[2] = tested on: Human multiple myeloma cell line U266; assay: Anticancer effect, viable cells by trypan blue assay (24-well plates, FIG. 14-19); assay type: cell-based; conditions: 5 μM each, 96 hours; for enhancement of the anticancer effect (viable cells) of EGCG: combined with EGCG; for enhancement of the anticancer effect (viable cells) of EGCG 3″Me: combined with EGCG 3″Me; for enhancement of the anticancer effect (viable cells) of GCG: combined with GCG (gallocatechin gallate)
Method: as §1, with “fetal bovine serum (FCS)” for “FCS”, “filter-sterilized. Then, the RPMI 1640 medium was supplemented with FCS and used for cell culture. Per liter of ultrapure water, NaCl (8.0 g), KCl (0.2 g), Na2HPO4 (1.15 g) and KH2PO4 (0.2 g) were dissolved to prepare PBS, which was then sterilized in an autoclave.” for “filter-sterilized.”
Eriodictyol and structural analogs thereof, i.e., naringenin and hesperetin, as well as glycosides thereof, i.e., eriocitrin, naringin and hesperidin were each adjusted to 5 mM with 100% dimethyl sulfoxide (DMSO) and stored at −30° C. EGCG and (−)-gallocatechin gallate (GCG) were each adjusted to 5 mM with ultrapure water and stored at −30° C. EGCG 3″Me was adjusted to 5 mM with 10% DMSO dH2O and stored at −30° C.
U266 adjusted to 5×10^4 cells/mL in RPMI 1640 containing 1% FCS, SOD (5 U/mL) and catalase (200 U/mL) was seeded in 24-well plates and cultured for 96 hours in the presence of EGCG and analogs thereof or eriodictyol and analogs thereof added at a final concentration of 5 μM each. After culture, viable cells were counted by trypan blue assay.
For statistical processing of the experimental results, Student's test was used and P<0.05 was considered statistically significant in comparison with control data in the vehicle group.

[3] = tested on: tail suspension test-induced disuse amyotrophy in mice; assay: Tail suspension test-induced disuse amyotrophy (quadriceps femoris weight); assay type: in vivo, mouse; conditions: C57BL/6J mice; 5 mg/kg intragastric once a day; tail suspension for 10 days from day 7; FIG. 4
Method: Male C57BL/6J mice at 12 weeks of age were divided into 5 groups such that the average body weight was equal in all groups, i.e., a GR (ground) group, a TS (tail suspension) group, an EGCG group, an eriodictyol group, and an EGCG+eriodictyol group. From the beginning of grouping, the GR and TS groups received physiological saline, the EGCG group received EGCG and the eriodictyol group received eriodictyol (5 mg/kg) by intragastric administration, while the EGCG+eriodictyol group received EGCG and eriodictyol (5 mg/kg) by intragastric administration through a sonde. For 7 days from the beginning of grouping, all the groups were kept under normal conditions, and the TS, EGCG, eriodictyol, and EGCG+eriodictyol groups were then subjected to a tail suspension test. After the tail suspension test for 10 days (at 17 days after initiation of the experiment), all the mice were sacrificed by abdominal aortic puncture under isoflurane anesthesia, and the quadriceps femoris was excised from each mouse and measured for its weight. Each sample was administered daily throughout the experimental period. […] At 10 days after starting the tail suspension test, the mice were sacrificed by abdominal aortic puncture under isoflurane anesthesia, and the quadriceps femoris was excised from each mouse and measured for its weight.

O=C1C[C@@H](c2ccc(O)cc2)Oc2cc(O)cc(O)c21 [naringenin]
enhancement of the anticancer effect (viable cells) of EGCG, EGCG 3″Me or a green tea extract [1]: remarkably enhance the anticancer effect | enhancement of the anticancer effect (viable cells) of EGCG [2]: remarkably enhance the anticancer effect | enhancement of the anticancer effect (viable cells) of EGCG 3″Me [2]: remarkably enhance the anticancer effect | enhancement of the anticancer effect (viable cells) of GCG [2]: remarkably enhance the anticancer effect

C[C@@H]1O[C@@H](OC[C@H]2O[C@@H](Oc3cc(O)c4c(c3)O[C@H](c3ccc(O)c(O)c3)CC4=O)[C@H](O)[C@@H](O)[C@@H]2O)[C@H](O)[C@H](O)[C@H]1O [eriocitrin]
enhancement of the anticancer effect (viable cells) of EGCG [2]: remarkably enhance the anticancer effect | enhancement of the anticancer effect (viable cells) of EGCG 3″Me [2]: remarkably enhance the anticancer effect | enhancement of the anticancer effect (viable cells) of GCG [2]: remarkably enhance the anticancer effect

COc1ccc([C@@H]2CC(=O)c3c(O)cc(O[C@@H]4O[C@H](CO[C@@H]5O[C@@H](C)[C@H](O)[C@@H](O)[C@H]5O)[C@@H](O)[C@H](O)[C@H]4O)cc3O2)cc1O [hesperidin]
enhancement of the anticancer effect (viable cells) of EGCG [2]: remarkably enhance the anticancer effect | enhancement of the anticancer effect (viable cells) of EGCG 3″Me [2]: remarkably enhance the anticancer effect | enhancement of the anticancer effect (viable cells) of GCG [2]: remarkably enhance the anticancer effect

O=C(O[C@@H]1Cc2c(O)cc(O)cc2O[C@@H]1c1cc(O)c(O)c(O)c1)c1cc(O)c(O)c(O)c1 [EGCG, epigallocatechin gallate]
effect on amyotrophy (quadriceps femoris weight) [3]: no effect on amyotrophy

C[C@@H]1O[C@@H](O[C@H]2[C@H](Oc3cc(O)c4c(c3)O[C@H](c3ccc(O)cc3)CC4=O)O[C@H](CO)[C@@H](O)[C@@H]2O)[C@H](O)[C@H](O)[C@H]1O [naringin]
enhancement of the anticancer effect (viable cells) of EGCG [2]: remarkably enhance the anticancer effect

COc1ccc([C@@H]2CC(=O)c3c(O)cc(O)cc3O2)cc1O [hesperetin]
enhancement of the anticancer effect (viable cells) of EGCG, EGCG 3″Me or a green tea extract [1]: remarkably enhance the anticancer effect | enhancement of the anticancer effect (viable cells) of EGCG [2]: remarkably enhance the anticancer effect | enhancement of the anticancer effect (viable cells) of EGCG 3″Me [2]: remarkably enhance the anticancer effect | enhancement of the anticancer effect (viable cells) of GCG [2]: remarkably enhance the anticancer effect
